From the NIST ThermoML archive (doi:10.1021/je8001255)

Test: an = ratio of the nth substance listed, in mol/kg
Details: 100 kPa, Liquid; for electrical conductivity: Alternating current cell with electrodes

O=S(=O)([O-])[O-].[Cd+2] [cadmium sulfate] + O
Details | electrical conductivity, 278.15 K [S/m] | electrical conductivity, 283.15 K [S/m] | electrical conductivity, 288.15 K [S/m] | electrical conductivity, 293.15 K [S/m] | electrical conductivity, 298.15 K [S/m] | electrical conductivity, 303.15 K [S/m] | electrical conductivity, 308.15 K [S/m] | mass density, 298.15 K [kg/m3]
a1 = 0.00493 | 0.0507 | 0.0583 | 0.0658 | 0.0734 | 0.0813 | 0.0892 | 0.0972 | 998.06
a1 = 0.01043 | 0.092 | 0.105 | 0.119 | 0.132 | 0.146 | 0.16 | 0.174 | 999.18
a1 = 0.0299 | 0.209 | 0.239 | 0.269 | 0.298 | 0.328 | 0.358 | 0.387 | 1003.14
a1 = 0.0514 | 0.319 | 0.364 | 0.409 | 0.454 | 0.499 | 0.544 | 0.587 | 1007.53
a1 = 0.1001 | 0.537 | 0.612 | 0.687 | 0.761 | 0.836 | 0.91 | 0.981 | 1017.5
a1 = 0.2017 | 0.93 | 1.06 | 1.19 | 1.32 | 1.44 | 1.57 | 1.69 | 1038.74
a1 = 0.4092 | 1.61 | 1.83 | 2.05 | 2.27 | 2.49 | 2.71 | 2.92 | 1084.21
a1 = 0.6014 | 2.13 | 2.42 | 2.72 | 3.01 | 3.31 | 3.6 | 3.89 | 1129.51
a1 = 0.8202 | 2.6 | 2.97 | 3.33 | 3.7 | 4.07 | 4.43 | 4.8 | 1185.1
a1 = 1.001 | 2.96 | 3.38 | 3.79 | 4.21 | 4.63 | 5.05 | 5.47 | 1234.43
a1 = 1.209 | 3.1 | 3.56 | 4.01 | 4.47 | 4.95 | 5.42 | 5.9 | 1295.86
a1 = 1.378 | 3.16 | 3.63 | 4.11 | 4.6 | 5.1 | 5.61 | 6.12 | 1349.9
a1 = 1.486 | 3.13 | 3.62 | 4.11 | 4.61 | 5.12 | 5.65 | 6.18 | 1385.75
a1 = 1.609 | 3.04 | 3.53 | 4.02 | 4.53 | 5.06 | 5.6 | 6.14 | 1429.78
a1 = 1.798 | 2.8 | 3.28 | 3.77 | 4.28 | 4.81 | 5.36 | 5.91 | 1500.75
a1 = 1.939 | 2.53 | 2.99 | 3.46 | 3.95 | 4.47 | 5 | 5.55 | 1556.84

O=S(=O)([O-])[O-].[Mn+2] [manganese(II) sulfate] + O
Details | electrical conductivity, 278.15 K [S/m] | electrical conductivity, 283.15 K [S/m] | electrical conductivity, 288.15 K [S/m] | electrical conductivity, 293.15 K [S/m] | electrical conductivity, 298.15 K [S/m] | electrical conductivity, 303.15 K [S/m] | electrical conductivity, 308.15 K [S/m] | mass density, 298.15 K [kg/m3]
a1 = 0.00499 | 0.0524 | 0.06 | 0.068 | 0.0761 | 0.0844 | 0.0928 | 0.101 | 997.79
a1 = 0.00999 | 0.0922 | 0.106 | 0.119 | 0.134 | 0.148 | 0.162 | 0.177 | 998.55
a1 = 0.01997 | 0.16 | 0.183 | 0.207 | 0.231 | 0.255 | 0.279 | 0.303 | 1000.02
a1 = 0.05028 | 0.333 | 0.38 | 0.428 | 0.477 | 0.526 | 0.575 | 0.622 | 1004.5
a1 = 0.1005 | 0.575 | 0.656 | 0.739 | 0.822 | 0.905 | 0.987 | 1.07 | 1011.91
a1 = 0.1991 | 1.01 | 1.15 | 1.29 | 1.44 | 1.58 | 1.72 | 1.86 | 1026.55
a1 = 0.3159 | 1.39 | 1.59 | 1.78 | 1.98 | 2.18 | 2.37 | 2.56 | 1044.23
a1 = 0.4963 | 1.93 | 2.2 | 2.47 | 2.75 | 3.03 | 3.3 | 3.57 | 1072.29
a1 = 0.7442 | 2.5 | 2.85 | 3.21 | 3.57 | 3.93 | 4.29 | 4.65 | 1112.53
a1 = 0.9865 | 2.95 | 3.36 | 3.79 | 4.22 | 4.65 | 5.08 | 5.5 | 1153.87
a1 = 1.208 | 3.07 | 3.51 | 3.97 | 4.44 | 4.91 | 5.38 | 5.85 | 1194.32
a1 = 1.384 | 3.1 | 3.57 | 4.04 | 4.53 | 5.03 | 5.52 | 6.02 | 1227.02
a1 = 1.653 | 2.98 | 3.44 | 3.93 | 4.43 | 4.95 | 5.46 | 5.98 | 1280.18
a1 = 1.826 | 2.78 | 3.25 | 3.72 | 4.21 | 4.72 | 5.23 | 5.75 | 1318.47
a1 = 2.082 | 2.41 | 2.84 | 3.29 | 3.76 | 4.25 | 4.74 | 5.24 | 1371.35
a1 = 2.189 | 2.19 | 2.6 | 3.02 | 3.47 | 3.93 | 4.41 | 4.89 | 1398.09
a1 = 2.434 | 1.6 | 1.93 | 2.28 | 2.66 | 3.06 | 3.48 | 3.9 | 1452.93
